The record followed here is the supplement of paper PMC10307832.

Holding throughout (assay): relative viability (nuclei count vs DMSO), 5 days (fraction); higher = more cells survive
Compound in test [1]: CCN1CCN(c2ccc(Nc3cc(N(C)C(=O)Nc4c(Cl)c(OC)cc(OC)c4Cl)ncn3)cc2)CC1 [BGJ398] + O=C(CCCCCCC(=O)Nc1ccccc1)NO [Vorinostat] (partner 1 µM)
The method, boiled down: (§1)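 Lung cancer cell lines, seeded in 1536-well plates, were treated the following day by pin tool with a single drug or with five library-drug doses (not always all listed) in √10 steps on top of a fixed anchor-drug dose. Cells were fixed and nuclei stained in one step after 5 days, and nuclei were counted. Relative viability is the nuclei count for treated wells divided by that for vehicle wells, reported as medians of duplicate plates.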

Compound in test [2]: CCN1CCN(c2ccc(Nc3cc(N(C)C(=O)Nc4c(Cl)c(OC)cc(OC)c4Cl)ncn3)cc2)CC1 [BGJ398] + CC(=O)Nc1cccc(-n2c(=O)n(C3CC3)c(=O)c3c(Nc4ccc(I)cc4F)n(C)c(=O)c(C)c32)c1 [Trametinib] (partner 0.02 µM)
Summed up: as §1

Compound in test [3]: CCN1CCN(c2ccc(Nc3cc(N(C)C(=O)Nc4c(Cl)c(OC)cc(OC)c4Cl)ncn3)cc2)CC1 [BGJ398] + CS(=O)(=O)N1CCN(Cc2cc3nc(-c4cccc5[nH]ncc45)nc(N4CCOCC4)c3s2)CC1 [Pictilisib] (partner 1 µM)
Summed up: as §1

Compound in test [4]: C1=CC2=NC=CN=C2C=C1/C=C/3\C(=O)NC(=O)S3 + N=C(N)NC(=N)NCCc1ccccc1 [Phenformin] (partner 250 µM)
The method, boiled down:
as §1

On to NCI-H661, for which the relative viability in test [1] (first compound 0.01 µM) amounted to 0.774; in test [1] (first compound 0.03162 µM), 0.796; in test [1] (first compound 0.1 µM), 0.806; in test [1] (first compound 0.3162 µM), 0.731; in test [1] (first compound 1 µM), 0.801; in test [2] (first compound 0.01 µM) it was 0.479. In addition, the relative viability in test [2] (first compound 0.03162 µM) stood at 0.599; in test [2] (first compound 0.1 µM), 0.642; in test [2] (first compound 0.3162 µM) it was 0.516; in test [2] (first compound 1 µM) it was 0.63; in test [3] (first compound 0.01 µM), 0.361; in test [3] (first compound 0.03162 µM), 0.46. The relative viability in test [3] (first compound 0.1 µM) was 0.388; in test [3] (first compound 0.3162 µM), 0.382; in test [3] (first compound 1 µM), 0.348; in test [4] (first compound 0.02 µM), 0.239; in test [4] (first compound 0.06325 µM), 0.393; in test [4] (first compound 0.2 µM), 0.289. For the same cell line, the relative viability in test [4] (first compound 0.6325 µM) amounted to 0.298; in test [4] (first compound 2 µM), 0.249.
For the cell line NCI-H727, the relative viability in test [1] (first compound 0.01 µM) was determined as 1.06; in test [1] (first compound 0.03162 µM) it was 1.26; in test [1] (first compound 0.1 µM), 1.21; in test [1] (first compound 0.3162 µM), 1.22; in test [1] (first compound 1 µM), 0.858; in test [2] (first compound 0.01 µM), 0.417. Besides, the relative viability was 0.412 in test [2] (first compound 0.03162 µM); 0.381 in test [2] (first compound 0.1 µM); 0.389 in test [2] (first compound 0.3162 µM); 0.385 in test [2] (first compound 1 µM); 0.455 in test [3] (first compound 0.01 µM); 0.504 in test [3] (first compound 0.03162 µM). The relative viability in test [3] (first compound 0.1 µM) came out at 0.176; in test [3] (first compound 0.3162 µM) it was 0.316; in test [3] (first compound 1 µM), 0.293; in test [4] (first compound 0.02 µM), 0.552; in test [4] (first compound 0.06325 µM), 0.504; in test [4] (first compound 0.2 µM) it was 0.686. Also, the relative viability turned out to be 0.454 in test [4] (first compound 0.6325 µM) and 0.283 in test [4] (first compound 2 µM).
For NCI-H838, the relative viability in test [1] (first compound 0.01 µM) came to 0.664; in test [1] (first compound 0.03162 µM), 0.697; in test [1] (first compound 0.1 µM), 0.695; in test [1] (first compound 0.3162 µM), 0.633; in test [1] (first compound 1 µM), 0.629; in test [2] (first compound 0.01 µM), 0.41. The relative viability in test [2] (first compound 0.03162 µM) is 0.537; in test [2] (first compound 0.1 µM) it was 0.51; in test [2] (first compound 0.3162 µM), 0.403; in test [2] (first compound 1 µM), 0.382; in test [3] (first compound 0.01 µM), 0.436; in test [3] (first compound 0.03162 µM), 0.393. For the same cell line, the relative viability in test [3] (first compound 0.1 µM) stood at 0.417; in test [3] (first compound 0.3162 µM), 0.338; in test [3] (first compound 1 µM), 0.277; in test [4] (first compound 0.02 µM), 0.664; in test [4] (first compound 0.06325 µM) it was 0.737; in test [4] (first compound 0.2 µM) it was 0.596. Moreover, the figures for the relative viability in test [4] (first compound 0.6325 µM) and in test [4] (first compound 2 µM) were 0.461 and 0.36, respectively.
Turning to NCI-H1355, the relative viability was determined as 0.576 in test [1] (first compound 0.01 µM); 0.626 in test [1] (first compound 0.03162 µM); 0.695 in test [1] (first compound 0.1 µM); 0.607 in test [1] (first compound 0.3162 µM); 0.49 in test [1] (first compound 1 µM); 0.374 in test [2] (first compound 0.01 µM). Besides, the relative viability in test [2] (first compound 0.03162 µM) turned out to be 0.44; in test [2] (first compound 0.1 µM) it was 0.452; in test [2] (first compound 0.3162 µM) it was 0.382; in test [2] (first compound 1 µM) it was 0.329; in test [3] (first compound 0.01 µM), 0.396; in test [3] (first compound 0.03162 µM), 0.477. For the same cell line, the relative viability in test [3] (first compound 0.1 µM) was 0.5; in test [3] (first compound 0.3162 µM), 0.496; in test [3] (first compound 1 µM) it was 0.271; in test [4] (first compound 0.02 µM) it was 0.435; in test [4] (first compound 0.06325 µM), 0.374; in test [4] (first compound 0.2 µM), 0.489. The relative viability is 0.431 in test [4] (first compound 0.6325 µM) and 0.392 in test [4] (first compound 2 µM).
